This is an account of results in ChEMBL document CHEMBL1201862, “PubChem BioAssay data set” (2004).

As usually defined, the IC50 is the concentration that inhibits the measured activity by half. One may read the AC50 as the midpoint of the concentration-response curve, whichever way the signal moves. By EC50 is commonly meant the concentration at which the effect is half-maximal.

The target of test [1] is T1, Alkaline phosphatase, tissue-nonspecific isozyme (Homo sapiens, UniProt P05186).
T1 sequence (P05186 whole entry): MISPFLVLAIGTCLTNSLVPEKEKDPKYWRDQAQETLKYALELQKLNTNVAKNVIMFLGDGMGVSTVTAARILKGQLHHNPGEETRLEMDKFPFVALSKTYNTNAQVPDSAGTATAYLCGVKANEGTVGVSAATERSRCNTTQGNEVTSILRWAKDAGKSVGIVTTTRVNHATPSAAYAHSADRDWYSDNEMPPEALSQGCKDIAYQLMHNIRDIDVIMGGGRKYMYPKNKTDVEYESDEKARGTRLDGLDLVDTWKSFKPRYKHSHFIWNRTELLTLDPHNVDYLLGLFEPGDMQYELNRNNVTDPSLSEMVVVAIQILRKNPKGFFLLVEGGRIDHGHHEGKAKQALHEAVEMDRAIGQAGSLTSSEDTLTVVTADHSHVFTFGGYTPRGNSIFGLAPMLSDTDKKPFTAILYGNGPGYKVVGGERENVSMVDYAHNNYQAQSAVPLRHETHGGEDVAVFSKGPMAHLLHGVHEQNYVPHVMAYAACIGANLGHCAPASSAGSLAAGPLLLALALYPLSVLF
In words: human TNAP enzyme inhibitors, SAR follow-up, biochemical, luminescent, dose response (AID 1056).

Test [2] concerns the target Glyceraldehyde-3-phosphate dehydrogenase (Homo sapiens, UniProt P04406).
The target of test [3] is G-protein coupled receptor 55 (Homo sapiens, UniProt Q9Y2T6). In words: GPR55 antagonists blocking LPI-driven arrestin recruitment, primary screen, imaging, U2OS, beta-arrestin-GFP, LPI agonist (AID 2013).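 Note: antagonist potency measured as reduced agonist-driven arrestin aggregation.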 Type of test: functional. In general terms: Activated receptors often draw arrestin, which recruitment assays turn into a signal.
The target in another test is Cytochrome P450 3A4 (Homo sapiens, UniProt P08684). The following applies: Potency.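 Note: confirmatory qHTS run detecting inhibitors and substrates of CYP3A4.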
The nature of test [4]: Luminescence Cell-Based Dose Response HTS to Identify Activators of Luciferase Translation or Activity in H4 […] Cells. [Related pubchem assays: 1829 (Project Summary), 1814 (Primary HTS)]. The test is classed as functional.
The next test relates to H4. In words: Luminescence Cell-Based Dose Response HTS to Identify Activators of 5'UTR Stem-Loop Driven Prion Protein mRNA Translation in H4 Neuroglioblastoma Cells. [Related pubchem assays: 1829 (Project Summary), 1814 (Primary HTS)]. Type of test: functional. The conditions noted are these: Homo sapiens.
Test [5] can be described thus: Luminescent dose response cell-based high throughput screening assay for inhibitors of the Janus kinase 2 mutant JAK2V617F. [Related pubchem assays: 1446 (Primary screen.), 1521 (Confirmation assay.), 1486 (Counter screen.)]. Type of test: functional. (Counterscreens check selectivity or assay interference.)
Test [6] in a line: Luminescence Cell-Based Dose Confirmation HTS to Identify Activators of 5'UTR Stem-Loop Driven Alpha-Synuclein mRNA Translation in H4 Neuroglioblastoma Cells. [Related pubchem assays: 1829 (Project Summary), 1814 (Primary HTS)]. Type of test: functional.
Another test has as its target T2, Aminopeptidase N (Plasmodium falciparum FcB1/Columbia, UniProt O96935).
T2 sequence (O96935 whole entry): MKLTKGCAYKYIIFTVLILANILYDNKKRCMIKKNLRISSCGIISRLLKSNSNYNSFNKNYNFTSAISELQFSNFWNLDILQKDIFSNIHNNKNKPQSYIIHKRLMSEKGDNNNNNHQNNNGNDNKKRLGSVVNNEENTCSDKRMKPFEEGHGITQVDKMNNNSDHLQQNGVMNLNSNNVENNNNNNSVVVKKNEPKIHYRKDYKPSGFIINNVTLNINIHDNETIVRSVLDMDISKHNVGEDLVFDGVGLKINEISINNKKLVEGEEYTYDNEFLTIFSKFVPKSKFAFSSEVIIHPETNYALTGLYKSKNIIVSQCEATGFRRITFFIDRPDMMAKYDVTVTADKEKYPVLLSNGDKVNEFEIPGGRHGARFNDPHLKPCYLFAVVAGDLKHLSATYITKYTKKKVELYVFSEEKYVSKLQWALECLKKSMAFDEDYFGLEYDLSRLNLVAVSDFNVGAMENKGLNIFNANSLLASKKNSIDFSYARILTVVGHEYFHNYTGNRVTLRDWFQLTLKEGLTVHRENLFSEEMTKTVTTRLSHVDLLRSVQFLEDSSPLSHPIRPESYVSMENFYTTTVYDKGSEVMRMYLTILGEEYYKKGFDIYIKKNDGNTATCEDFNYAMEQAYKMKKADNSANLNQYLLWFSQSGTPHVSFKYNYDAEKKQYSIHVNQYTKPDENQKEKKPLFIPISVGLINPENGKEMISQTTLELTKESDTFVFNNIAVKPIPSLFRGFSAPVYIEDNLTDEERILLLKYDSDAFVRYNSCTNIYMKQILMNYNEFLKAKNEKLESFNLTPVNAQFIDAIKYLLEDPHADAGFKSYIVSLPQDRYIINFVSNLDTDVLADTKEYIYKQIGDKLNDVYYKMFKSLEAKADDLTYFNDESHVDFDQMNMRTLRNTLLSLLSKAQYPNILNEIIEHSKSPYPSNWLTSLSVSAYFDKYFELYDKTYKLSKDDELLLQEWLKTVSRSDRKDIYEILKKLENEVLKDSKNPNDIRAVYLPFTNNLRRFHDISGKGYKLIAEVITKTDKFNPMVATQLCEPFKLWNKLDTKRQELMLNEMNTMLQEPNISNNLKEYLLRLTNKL
Kind of test: P. falciparum M1AAP inhibitors, biochemical, fluorogenic H-Leu-NHMec substrate, 1536-well (AID 1445). Set-up: species or system Plasmodium falciparum 3D7, 3D7.

For test [7], the target named is T3, Heat shock factor protein 1 (Mus musculus, UniProt P38532).
T3 sequence (P38532 whole entry): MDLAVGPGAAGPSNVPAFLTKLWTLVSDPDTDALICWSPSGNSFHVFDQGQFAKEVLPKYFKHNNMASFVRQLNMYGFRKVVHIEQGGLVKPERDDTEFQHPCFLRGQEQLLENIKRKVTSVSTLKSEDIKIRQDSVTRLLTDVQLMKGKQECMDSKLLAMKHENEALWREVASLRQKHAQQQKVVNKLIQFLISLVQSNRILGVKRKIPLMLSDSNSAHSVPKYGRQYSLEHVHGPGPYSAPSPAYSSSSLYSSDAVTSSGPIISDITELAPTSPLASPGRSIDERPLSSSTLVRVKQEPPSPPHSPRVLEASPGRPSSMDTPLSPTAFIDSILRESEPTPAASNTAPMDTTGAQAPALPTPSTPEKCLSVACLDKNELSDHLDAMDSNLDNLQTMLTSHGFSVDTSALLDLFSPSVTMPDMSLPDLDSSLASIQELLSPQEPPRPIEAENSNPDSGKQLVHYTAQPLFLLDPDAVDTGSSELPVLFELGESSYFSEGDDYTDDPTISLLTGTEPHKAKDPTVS
Kind of test: inhibition of MG132-induced HSE-luciferase signal, confirmation, cell-based, NIH3T3, luminescence, dose retest (AID 2382).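 Note: NIH3T3 fibroblasts with HSF1-driven luciferase reporter stressed by proteasome inhibitor MG132; luminescence from HSF1-driven luciferase expression after 8 hours of MG132 stress.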 The test is classed as functional.

The next test addresses T4, Protein RecA (Mycobacterium tuberculosis, UniProt P9WHJ3).
T4 sequence (P9WHJ3 whole entry): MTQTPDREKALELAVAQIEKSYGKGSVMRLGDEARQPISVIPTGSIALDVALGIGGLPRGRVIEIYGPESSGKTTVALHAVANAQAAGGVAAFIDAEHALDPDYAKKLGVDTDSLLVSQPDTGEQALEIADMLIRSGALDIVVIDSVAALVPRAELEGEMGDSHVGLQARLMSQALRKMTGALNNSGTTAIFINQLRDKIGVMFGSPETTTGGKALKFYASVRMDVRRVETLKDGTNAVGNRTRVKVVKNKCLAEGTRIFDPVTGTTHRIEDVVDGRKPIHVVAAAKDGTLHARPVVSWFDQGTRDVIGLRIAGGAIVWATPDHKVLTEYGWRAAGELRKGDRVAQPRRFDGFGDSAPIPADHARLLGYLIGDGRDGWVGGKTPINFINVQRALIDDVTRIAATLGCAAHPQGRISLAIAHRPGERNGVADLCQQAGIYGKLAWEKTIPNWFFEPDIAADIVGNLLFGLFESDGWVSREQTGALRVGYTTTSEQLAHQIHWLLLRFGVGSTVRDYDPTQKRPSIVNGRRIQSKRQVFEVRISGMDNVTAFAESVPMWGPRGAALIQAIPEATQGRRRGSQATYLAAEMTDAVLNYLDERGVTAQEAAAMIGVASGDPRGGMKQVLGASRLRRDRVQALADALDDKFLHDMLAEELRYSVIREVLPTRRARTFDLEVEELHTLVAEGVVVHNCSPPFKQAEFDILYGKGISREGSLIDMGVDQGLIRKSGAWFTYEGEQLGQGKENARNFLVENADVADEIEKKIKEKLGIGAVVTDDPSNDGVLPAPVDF
In words: Fluorescence Cell-Free Homogeneous Dose Retest to Identify Inhibitors of RecA-Intein Splicing Activity. [Related pubchem assays (depositor defined):AID2097, AID2223, AID489010, AID492950]. The test is classed as functional.

Test [8] can be described thus: Luminescence Cell-Based Dose Retest to Confirm Inhibitors of Cancer Stem Cells. [Related pubchem assays (depositor defined):AID2717, AID2721]. The test is classed as functional. The following applies: Homo sapiens.
For test [9], the target named is T5, Microphthalmia-associated transcription factor (Homo sapiens, UniProt O75030).
T5 sequence (O75030 whole entry): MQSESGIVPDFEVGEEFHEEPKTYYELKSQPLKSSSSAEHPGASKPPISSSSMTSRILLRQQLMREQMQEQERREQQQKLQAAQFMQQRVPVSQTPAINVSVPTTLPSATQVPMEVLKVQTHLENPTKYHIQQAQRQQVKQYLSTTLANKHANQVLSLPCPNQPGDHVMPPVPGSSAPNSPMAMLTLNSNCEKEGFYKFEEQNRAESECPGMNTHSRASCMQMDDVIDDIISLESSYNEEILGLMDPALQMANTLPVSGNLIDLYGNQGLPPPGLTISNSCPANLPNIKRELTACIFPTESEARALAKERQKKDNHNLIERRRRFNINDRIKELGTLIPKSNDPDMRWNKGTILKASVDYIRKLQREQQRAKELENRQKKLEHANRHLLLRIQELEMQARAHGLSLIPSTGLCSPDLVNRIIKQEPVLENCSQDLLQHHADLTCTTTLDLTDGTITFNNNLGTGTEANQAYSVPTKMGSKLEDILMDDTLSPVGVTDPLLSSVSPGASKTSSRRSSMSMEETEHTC
Kind of test: TRPM1 promoter luciferase signal decrease, dose response, MITF inhibitor project, cell-based, SK-MEL-5, cherry-picked, set 3 (AID 493073).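 Note: SK-MEL-5 melanoma cells with luciferase driven by the MITF target TRPM1 promoter.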 The test is classed as functional.

Molecules are shown by their SMILES. “And” between values parts separate entries of the source, which are not always exact repeats. Equal values may be shown once. The source made the active and inactive calls.

Sequence of Cytochrome P450 3A4 (P08684 whole entry): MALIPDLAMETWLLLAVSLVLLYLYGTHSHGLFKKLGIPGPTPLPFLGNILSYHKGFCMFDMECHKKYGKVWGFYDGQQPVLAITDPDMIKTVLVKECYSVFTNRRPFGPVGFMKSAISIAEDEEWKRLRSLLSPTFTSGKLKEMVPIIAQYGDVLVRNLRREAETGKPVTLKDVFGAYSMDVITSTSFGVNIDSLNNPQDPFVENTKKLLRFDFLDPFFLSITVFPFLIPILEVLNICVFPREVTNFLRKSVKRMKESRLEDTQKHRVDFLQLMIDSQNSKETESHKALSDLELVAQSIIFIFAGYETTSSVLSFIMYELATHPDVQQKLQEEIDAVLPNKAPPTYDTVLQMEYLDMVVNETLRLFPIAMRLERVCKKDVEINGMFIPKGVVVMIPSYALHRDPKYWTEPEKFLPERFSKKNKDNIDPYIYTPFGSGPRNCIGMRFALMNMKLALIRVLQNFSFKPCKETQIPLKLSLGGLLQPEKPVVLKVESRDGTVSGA
Sequence of G-protein coupled receptor 55 (Q9Y2T6 whole entry): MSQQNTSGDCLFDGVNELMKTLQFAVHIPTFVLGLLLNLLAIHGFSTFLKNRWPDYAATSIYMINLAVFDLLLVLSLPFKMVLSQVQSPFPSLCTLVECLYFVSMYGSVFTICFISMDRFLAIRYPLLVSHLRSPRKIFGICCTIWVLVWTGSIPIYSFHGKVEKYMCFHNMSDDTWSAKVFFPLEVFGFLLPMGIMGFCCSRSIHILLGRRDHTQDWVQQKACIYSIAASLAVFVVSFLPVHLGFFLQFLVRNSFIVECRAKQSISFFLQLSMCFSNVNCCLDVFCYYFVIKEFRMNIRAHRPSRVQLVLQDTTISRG
Sequence of Glyceraldehyde-3-phosphate dehydrogenase (P04406 whole entry): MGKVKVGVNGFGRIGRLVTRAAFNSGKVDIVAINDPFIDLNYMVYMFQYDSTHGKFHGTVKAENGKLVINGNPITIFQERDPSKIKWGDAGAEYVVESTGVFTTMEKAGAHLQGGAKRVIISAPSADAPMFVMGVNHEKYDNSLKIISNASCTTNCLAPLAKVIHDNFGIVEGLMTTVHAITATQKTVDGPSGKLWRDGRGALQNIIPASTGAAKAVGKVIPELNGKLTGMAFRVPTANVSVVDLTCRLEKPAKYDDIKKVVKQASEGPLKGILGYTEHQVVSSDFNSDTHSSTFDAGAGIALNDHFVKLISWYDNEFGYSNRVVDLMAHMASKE

As for `O=S(=O)(Nc1ccc2ccccc2c1)c1cc(Cl)ccc1Cl`, the IC50 in test [1] is > 100 µM (inactive) and > 10 µM (inactive); in test [2], > 100 µM (not active). For the compound `O=C(Nc1ccccc1N1CCCCC1)c1ccc(N2C(=O)c3ccccc3C2=O)cc1`, in [3], the 50% inhibitory concentration (IC50) is 1.99 µM (active). For the compound `COC(=O)[C@@H]1C[C@@H]2CC[C@@H](O)C[C@@H]2N1Cc1ccc(N2CCOCC2)cc1`, the AC50 on Cytochrome P450 3A4 was 3.98 µM (inconclusive). Turning to `CCCN1[C@H](C(=O)OC)C[C@@H]2CC[C@@H](O)C[C@@H]21`, the AC50 at Cytochrome P450 3A4 was 15.8 µM (inconclusive). `COc1ccc(OC)c(NS(=O)(=O)c2ccc(SC)cc2)c1`: the EC50 is 6.98 µM (active) in [4], 44.8 µM (active) in the test on H4 and > 120 µM (not active) in [6]. Moreover, the IC50 in [5] was 3.35 µM (active). On to `CNNC`, for which the half-maximal activity concentration (AC50) at Cytochrome P450 3A4 was 31.6 µM (inconclusive).

As to `CCCCc1cc(=O)oc2cc(C)cc(OCc3nn[nH]n3)c12`, the IC50 on Aminopeptidase N is 63.6 µM (active).

As for `O=C(CCl)N(C/C=C/c1ccccc1)c1ccc2c(c1)OCCO2`, the EC50 in test [7] is 1.67 µM (active); on Protein RecA, 0.356 µM (active). The 50% inhibitory concentration (IC50) in [5] is 0.605 µM (active). On to `C=C(C)C(O)/C=C/c1ccccc1OC` (stereo unspecified), for which the AC50 at Cytochrome P450 3A4 is 2.51 µM (inconclusive). Regarding `CN(CC(O)CON=C1c2ccccc2-c2ccccc21)S(=O)(=O)c1ccc(Br)cc1` (stereo unspecified), the AC50 in test [8] is 4.11 µM (active). Moreover, in [3], the IC50 was 2.14 µM (active).

Consider `CC(C)CN=C(NS(=O)(=O)c1ccccc1)C(Cl)(Cl)Cl`, for which the AC50 was 11.1 µM (active) in test [9] and 2.15 µM (active) in test [8]. In test [7], the EC50 is 7.41 µM (active). The IC50 in [3] was 2.02 µM (active). In the case of `CCOC(=O)C1=C(Nc2ccc(OC)cc2)S/C(=C\c2ccc(OCC(=O)O)c(OC)c2)C1=O`, the IC50 on Aminopeptidase N is 87.3 µM (active). With `NS(=O)(=O)c1ccc(CCNC(=O)COC(=O)CCSc2ccc(Cl)cc2)cc1`, at Aminopeptidase N, the 50% inhibitory concentration (IC50) is 46.8 µM (active). Regarding `COC(=O)c1ccc(C23CC4(C2)[C@H](CN(C)[C@@H]4c2ccccc2)C3c2ccc(C(F)(F)F)cc2)cc1` (stereo partly specified), the half-maximal activity concentration (AC50) on Cytochrome P450 3A4 was 15.8 µM (inconclusive). On to `NCc1cc(-c2cccnc2)n[nH]1`, for which the IC50 in test [1] is > 100 µM (inactive); in test [2] it was > 100 µM (not active).
